Results from patent US20090156565A1, “COMPOSITION AND USE THEREOF IN ENHANCING A THERAPEUTIC EFFECT OF AN ANTIEPILEPTIC DRUG” (priority 2004, published 2009).
Where two headings read alike, the source gives them in different places.

Columns and labels:
[1] = tested on: pilocarpine induced status-epilepticus; experiment: EEG (cortex and hippocampus) 24 hours after pilocarpine injection; type: in vivo; conditions: rats that received mifepristone versus rats without treatment
status epilepticus = experiment: Mifepristone given 15 minutes after onset of SE, diazepam after 1 hour, hourly monitoring for behavioral seizures; type: in vivo, rats; conditions: for rats that stopped seizing: 5 and 6 hours after DZ treatment
Procedure: In this experiment, mifepristone was given 15 minutes after onset of SE, but prior to administering the first dose of diazepam (DZ). Diazepam (7.5 mg/kg) was given after 1 hour of onset of SE. After DZ treatment, rats were monitored hourly for behavioral seizures.

[2] = tested on: pilocarpine induced status-epilepticus; experiment: Pilocarpine induced status-epilepticus in rats, mifepristone pretreatment, repeated diazepam doses until seizures stop; type: in vivo, Adult male Sprague-Dawley rats; conditions: for cumulative diazepam dose required to stop behavioral seizures (mean ±SEM): diazepam 6 mg/kg 1 h after SE, then 3 mg/kg every two hours
Procedure: Mifepristone is a yellow powdery substance and is available commercially (Sigma, St. Louis, Mo.). Adult male Sprague-Dawley rats were implanted with electrodes in CA1 and frontal cortex. After one week of recovery, rats were put in recording cages and connected to EEG monitoring system for continuous video-EEG recording. Rats were then treated with mifepristone (25 mg/kg body weight) one hour before the pilocarpine injection. Thirty minutes later rats were treated with scopalamine (1 mg/kg body weight) to reduce peripheral side effects of pilocarpine. Rats were injected with pilocarpine (385 mg/kg body weight) 30 minutes after the scopalamine injection to induce status-epilepticus. One hour after declared status-epilepticus, rats were treated with diazepam (6 mg/kg) to stop the seizures. Every two hours rats were monitored for signs of behavioral seizures and if required they were injected with 3 mg/kg diazepam until they completely stop seizing. The process was repeated until the rats completely stopped seizing. […] This example was presented by inventors in an article titled “Effects of Glucocorticoid Receptor Activity on Diazepam Efficacy in Terminating Status-Epilepticus in Adult Rats,” Epilepsia Vol. 45, Suppl. 7, page 146, October, 2004.
The histogram represents mean (±SEM) cumulative diazepam dose (mg/kg body weight) required to stop behavioral seizures.

[3] = tested on: maximal electricroshock-induced seizures; conditions: cited from earlier work; for protective activity of clonazepam against maximum electroshock: co-administration
[4] = tested on: pilocarpine induced status-epilepticus; experiment: Pilocarpine induced status-epilepticus in rats, mifepristone pretreatment, single diazepam dose, behavioral seizures (Racine stage); type: in vivo; conditions: not pretreated with mifepristone; single diazepam dose 7.5 mg/kg given 30 minutes after status-epilepticus; n=5

CC#C[C@]1(O)CC[C@H]2[C@@H]3CCC4=CC(=O)CCC4=C3[C@@H](c3ccc(N(C)C)cc3)C[C@@]21C [mifepristone, 17-beta-hydroxy-11-beta-(4-dimethyl-aminophenyl)-17-alpha(1-propynyl)-estra-4,9-dien-3-one]
frequency of spike-wave discharges and seizure recurrence [1]: lower frequency of spike-wave discharges and seizure recurrence | rats that had stopped seizing, compared to rats that did not receive mifepristone (status epilepticus; 3 to 6 hours after DZ treatment, mifepristone 15 minutes after onset of SE, diazepam 7.5 mg/kg 1 hour after onset): significantly more | rats that stopped seizing (status epilepticus; mifepristone 15 minutes after onset of SE plus diazepam 7.5 mg/kg, p<0.018, Kaplan-Meier): 100% | lower cumulative diazepam dose to terminate behavioral seizures compared to rats not pretreated with mifepristone ([2]; mifepristone pretreatment before pilocarpine, P<0.0005): 26.5% | cumulative diazepam dose required to stop behavioral seizures (mean ±SEM) ([2]; rats pretreated with mifepristone 25 mg/kg one hour before pilocarpine, ±0.41, n=14, p<0.0005): 7.5 mg/kg | effect on protective action of antiepileptic drugs against maximal electroshock-induced seizures ([3]; in combination with clonazepam, carbamazepine, phenobarbital, mice): failed to affect their protective action | effect on electrically-induced seizures ([3]; used alone, mice): no effect

CC/C(=C(\c1ccccc1)c1ccc(OCCN(C)C)cc1)c1ccccc1 [TXF, tamoxifen]
protective activity of clonazepam against maximum electroshock ([3]; female mice): improved

CC(=O)O[C@]1(C(C)=O)CC[C@H]2[C@@H]3C=C(Cl)C4=CC(=O)[C@@H]5C[C@@H]5[C@]4(C)[C@H]3CC[C@@]21C [CYP, cyproterone acetate]
protective activity of clonazepam against maximum electroshock ([3]; male mice): improved

CN1C(=O)CN=C(c2ccccc2)c2cc(Cl)ccc21 [diazepam]
rats that stopped seizing by 4 hours [4]: 1/5 | rats that stopped seizing (status epilepticus; diazepam 7.5 mg/kg, rats not receiving mifepristone): 33% | cumulative diazepam dose required to stop behavioral seizures (mean ±SEM) ([2]; rats that did not receive mifepristone, ±0.5, n=20): 10.2 mg/kg
